# Several values for one entry are separate records, joined by “and”; a condition that tells them apart may be missing. Identical values can stand only once. Counter-ions that a name gives are not always drawn. Activity calls are given as the source filed them.
# How the values were obtained:
# [1] = Luminescence Cell-Based Dose Confirmation HTS to Identify Activators of 5'UTR Stem-Loop Driven Alpha-Synuclein mRNA Translation in H4 Neuroglioblastoma Cells. [Related pubchem assays: 1829 (Project Summary), 1814 (Primary HTS)]; assay type: functional
# [2] = Luminescence Cell-Based Dose Response HTS to Identify Activators of Luciferase Translation or Activity in H4 […] Cells. [Related pubchem assays: 1829 (Project Summary), 1814 (Primary HTS)]; assay type: functional
# [3] = inhibitors of firefly luciferase expression or activity, dose response, H4 neuroglioma cells, luminescence (AID 1990); assay type: functional, cell-based
# [4] = Luminescence Cell-Based Dose Response HTS to Identify Inhibitors of 5'UTR Stem-Loop Driven Prion Protein mRNA Translation in H4 Neuroglioblastoma Cells. [Related pubchem assays: 1827 (Project Summary), 1813 (Primary HTS)]; assay type: functional
# [5] = inhibitors of SNCA 5'UTR-driven reporter translation, confirmation, H4 neuroglioma cells, luminescence (AID 1988); assay type: functional, cell-based
# H4 = test: Luminescence Cell-Based Dose Response HTS to Identify Activators of 5'UTR Stem-Loop Driven Prion Protein mRNA Translation in H4 Neuroglioblastoma Cells. [Related pubchem assays: 1829 (Project Summary), 1814 (Primary HTS)]; assay type: functional; details: Homo sapiens
# Paired box protein Pax-8 = Paired box protein Pax-8 (Homo sapiens, UniProt Q06710); test: inhibitors of PAX8-driven TPO luciferase reporter, dose response, RMG-I cells, cherry-pick (AID 687027); assay type: functional, cell-based;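 also: luciferase reporter driven by Pax8 target thyroperoxidase promoter measured by SteadyGlo luminescence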
# Cytochrome P450 2C19 = Cytochrome P450 2C19 (Homo sapiens, UniProt P33261); test: Cytochrome panel assay with activity outcomes. Panel member name: p450-cyp2c19 Compounds with AC50 equal or less than 10 uM are considered active; assay type: functional
# Cytochrome P450 2D6 = Cytochrome P450 2D6 (Homo sapiens, UniProt P10635);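 also: CYP2D6 member of a cytochrome P450 panel assay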
# Cytochrome P450 1A2 = target: T1, Cytochrome P450 1A2 (Homo sapiens, UniProt P05177);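 also: PubChem cytochrome P450 panel assay, CYP1A2 panel member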
# T1 sequence (P05177 whole entry): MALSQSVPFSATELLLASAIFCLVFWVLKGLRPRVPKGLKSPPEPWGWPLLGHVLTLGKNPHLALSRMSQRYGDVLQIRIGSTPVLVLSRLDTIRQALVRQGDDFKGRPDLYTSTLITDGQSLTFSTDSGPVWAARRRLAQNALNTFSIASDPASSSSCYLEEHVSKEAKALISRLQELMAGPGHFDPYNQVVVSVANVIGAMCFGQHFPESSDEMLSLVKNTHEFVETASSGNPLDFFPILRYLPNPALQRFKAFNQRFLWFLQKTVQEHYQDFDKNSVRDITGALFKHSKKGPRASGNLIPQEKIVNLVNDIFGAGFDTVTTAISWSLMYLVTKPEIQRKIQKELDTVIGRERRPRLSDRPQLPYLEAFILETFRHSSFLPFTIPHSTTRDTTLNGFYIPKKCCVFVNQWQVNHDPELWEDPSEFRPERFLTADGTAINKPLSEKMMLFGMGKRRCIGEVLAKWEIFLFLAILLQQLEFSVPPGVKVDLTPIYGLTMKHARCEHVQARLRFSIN
# Cytochrome P450 2C9 = Cytochrome P450 2C9 (Homo sapiens, UniProt P11712)
# Cytochrome P450 3A4 = Cytochrome P450 3A4 (Homo sapiens, UniProt P08684);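 also: CYP3A4 tested as one member of a cytochrome P450 panel screen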
# [6] = HEp-2 cell cytotoxicity, dose response, cytotoxicity control for RSV inhibitor project, HTS (AID 2410); assay type: functional; details: human respiratory syncytial virus
# H9c2 = test: cells; assay type: functional, cell-based; details: Rattus norvegicus, H9c2, Myocardium;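 also: confirmatory concentration-response retest of ultra-high-throughput screening hits for modulation of myocardial damage; cell death induced by hydrogen peroxide oxidative stress; compound pretreatment for 60 min then peroxide exposure for 2 h; potency is for protecting the cells against peroxide damage rather than for killing them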
# [7] = target: T2, Heat shock factor protein 1 (Mus musculus, UniProt P38532); test: HSF1 potentiators in luciferase reporter cells, confirmation, cell-based, NIH3T3, luminescence, dose retest (AID 435004); assay type: functional;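 also: stress induced by proteasome inhibitor MG132 added 30 min after compound; luciferase reporter driven by HSF1 response element in NIH3T3 cells; actives raise luminescence as potentiators of the MG132 stress response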
# T2 sequence (P38532 whole entry): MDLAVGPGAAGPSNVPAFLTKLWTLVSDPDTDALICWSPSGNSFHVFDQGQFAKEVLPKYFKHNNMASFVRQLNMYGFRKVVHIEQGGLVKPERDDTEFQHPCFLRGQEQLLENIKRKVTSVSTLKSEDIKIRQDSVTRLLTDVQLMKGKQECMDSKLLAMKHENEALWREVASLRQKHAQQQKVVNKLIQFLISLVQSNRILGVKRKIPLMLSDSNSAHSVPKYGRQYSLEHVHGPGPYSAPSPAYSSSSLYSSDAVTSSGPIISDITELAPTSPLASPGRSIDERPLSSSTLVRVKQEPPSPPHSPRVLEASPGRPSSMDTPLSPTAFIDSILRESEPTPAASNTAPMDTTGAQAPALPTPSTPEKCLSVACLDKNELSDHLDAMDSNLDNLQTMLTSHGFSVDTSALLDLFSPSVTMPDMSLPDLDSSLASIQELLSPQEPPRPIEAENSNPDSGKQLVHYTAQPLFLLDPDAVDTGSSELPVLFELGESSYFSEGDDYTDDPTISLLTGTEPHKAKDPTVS
# [8] = Shn3 3'UTR reporter inhibitors, dose response, cell-based, Clone20 osteoblasts, firefly luciferase, cherry-picked (AID 624132); assay type: functional;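 also: firefly luciferase luminescence from reporter carrying the Shn3 3'UTR in osteoblasts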
# [9] = system: Streptococcus sp. 'group A'; test: growth inhibition of control SK(-) GAS strain, dose response, counter-screen for streptokinase expression inhibitor project, luminescence, kanamycin, BacTiterGlo, confirmation (AID 1900); assay type: functional, organism-based
# Streptokinase A = target: T3, Streptokinase A (Streptococcus pyogenes serotype M1, UniProt P10520); test: S. pyogenes streptokinase expression inhibitors, potency, dose response, plasminogen activation absorbance, OD405 (AID 1914); assay type: functional, Streptococcus pyogenes M1 GAS;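 also: secreted streptokinase activity via plasminogen activation per viability signal from cell pellet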
# T3 sequence (P10520 whole entry): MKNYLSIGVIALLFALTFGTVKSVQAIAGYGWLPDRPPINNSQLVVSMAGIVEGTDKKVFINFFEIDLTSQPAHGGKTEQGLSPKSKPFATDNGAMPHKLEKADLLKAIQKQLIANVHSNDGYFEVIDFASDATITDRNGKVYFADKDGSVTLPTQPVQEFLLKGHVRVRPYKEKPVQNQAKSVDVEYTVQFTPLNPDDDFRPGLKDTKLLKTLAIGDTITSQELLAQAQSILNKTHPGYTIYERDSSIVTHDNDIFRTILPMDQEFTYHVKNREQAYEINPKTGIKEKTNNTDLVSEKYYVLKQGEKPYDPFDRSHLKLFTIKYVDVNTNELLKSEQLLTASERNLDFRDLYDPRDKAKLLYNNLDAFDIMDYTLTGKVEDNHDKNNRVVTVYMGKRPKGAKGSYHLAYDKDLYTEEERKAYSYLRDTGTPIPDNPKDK
# Streptococcus = test: Group A Streptococcus viability loss, dose response, counter-screen for streptokinase expression inhibitor project, luminescence, BacTiterGlo (AID 1915); assay type: functional, organism-based;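 also: potency for reduction of bacterial viability or growth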
# Sequence of Cytochrome P450 2C9 (P11712 whole entry): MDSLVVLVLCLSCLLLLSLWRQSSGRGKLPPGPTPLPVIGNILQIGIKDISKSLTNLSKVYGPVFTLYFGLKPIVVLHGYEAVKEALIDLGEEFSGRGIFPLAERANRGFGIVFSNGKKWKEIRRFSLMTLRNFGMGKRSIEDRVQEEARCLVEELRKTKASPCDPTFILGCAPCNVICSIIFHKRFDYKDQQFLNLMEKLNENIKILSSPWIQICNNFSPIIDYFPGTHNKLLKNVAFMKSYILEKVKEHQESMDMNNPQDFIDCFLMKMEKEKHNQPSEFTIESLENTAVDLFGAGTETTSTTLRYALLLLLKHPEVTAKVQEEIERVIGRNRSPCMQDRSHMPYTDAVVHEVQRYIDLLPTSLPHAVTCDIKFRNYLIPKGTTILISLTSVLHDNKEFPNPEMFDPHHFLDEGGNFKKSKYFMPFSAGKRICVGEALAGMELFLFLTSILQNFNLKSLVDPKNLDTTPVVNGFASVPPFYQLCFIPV
# Sequence of Cytochrome P450 2C19 (P33261 whole entry): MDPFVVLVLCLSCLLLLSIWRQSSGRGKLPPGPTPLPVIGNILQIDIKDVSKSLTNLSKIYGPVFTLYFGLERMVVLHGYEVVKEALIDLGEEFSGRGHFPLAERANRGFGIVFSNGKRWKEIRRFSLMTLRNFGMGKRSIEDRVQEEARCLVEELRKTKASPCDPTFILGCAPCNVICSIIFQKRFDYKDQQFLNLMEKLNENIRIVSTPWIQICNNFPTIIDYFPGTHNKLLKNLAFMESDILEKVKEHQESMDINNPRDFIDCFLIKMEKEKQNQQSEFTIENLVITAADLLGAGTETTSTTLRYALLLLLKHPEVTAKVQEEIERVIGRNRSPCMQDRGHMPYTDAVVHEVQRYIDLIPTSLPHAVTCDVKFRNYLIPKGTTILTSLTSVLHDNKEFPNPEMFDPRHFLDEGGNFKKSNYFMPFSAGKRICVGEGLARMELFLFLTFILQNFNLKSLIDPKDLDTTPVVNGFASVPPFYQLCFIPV
# Sequence of Cytochrome P450 3A4 (P08684 whole entry): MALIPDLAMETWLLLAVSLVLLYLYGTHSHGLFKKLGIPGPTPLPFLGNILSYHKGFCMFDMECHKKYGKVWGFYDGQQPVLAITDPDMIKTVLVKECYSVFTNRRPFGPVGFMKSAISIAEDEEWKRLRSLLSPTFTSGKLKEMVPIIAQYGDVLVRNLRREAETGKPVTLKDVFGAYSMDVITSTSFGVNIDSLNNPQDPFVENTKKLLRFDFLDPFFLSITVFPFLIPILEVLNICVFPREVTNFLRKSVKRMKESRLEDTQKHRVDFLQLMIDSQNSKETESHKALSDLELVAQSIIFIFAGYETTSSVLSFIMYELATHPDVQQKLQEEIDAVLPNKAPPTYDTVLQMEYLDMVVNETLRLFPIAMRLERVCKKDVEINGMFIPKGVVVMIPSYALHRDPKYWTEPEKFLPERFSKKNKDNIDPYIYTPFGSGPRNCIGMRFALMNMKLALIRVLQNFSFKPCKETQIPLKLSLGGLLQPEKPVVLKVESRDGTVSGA
# Sequence of Paired box protein Pax-8 (Q06710 whole entry): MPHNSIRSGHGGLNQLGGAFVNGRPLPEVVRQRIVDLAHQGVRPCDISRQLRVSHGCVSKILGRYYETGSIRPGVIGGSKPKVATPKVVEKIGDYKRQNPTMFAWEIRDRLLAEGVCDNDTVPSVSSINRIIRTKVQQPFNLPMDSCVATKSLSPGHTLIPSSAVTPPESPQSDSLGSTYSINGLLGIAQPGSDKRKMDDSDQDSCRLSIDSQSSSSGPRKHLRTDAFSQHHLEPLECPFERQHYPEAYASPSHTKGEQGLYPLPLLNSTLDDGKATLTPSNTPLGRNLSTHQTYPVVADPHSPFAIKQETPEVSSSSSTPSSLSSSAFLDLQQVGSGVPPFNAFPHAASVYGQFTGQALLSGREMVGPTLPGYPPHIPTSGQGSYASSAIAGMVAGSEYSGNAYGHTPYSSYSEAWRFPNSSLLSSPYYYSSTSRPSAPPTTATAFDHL
# Sequence of Cytochrome P450 2D6 (P10635 whole entry): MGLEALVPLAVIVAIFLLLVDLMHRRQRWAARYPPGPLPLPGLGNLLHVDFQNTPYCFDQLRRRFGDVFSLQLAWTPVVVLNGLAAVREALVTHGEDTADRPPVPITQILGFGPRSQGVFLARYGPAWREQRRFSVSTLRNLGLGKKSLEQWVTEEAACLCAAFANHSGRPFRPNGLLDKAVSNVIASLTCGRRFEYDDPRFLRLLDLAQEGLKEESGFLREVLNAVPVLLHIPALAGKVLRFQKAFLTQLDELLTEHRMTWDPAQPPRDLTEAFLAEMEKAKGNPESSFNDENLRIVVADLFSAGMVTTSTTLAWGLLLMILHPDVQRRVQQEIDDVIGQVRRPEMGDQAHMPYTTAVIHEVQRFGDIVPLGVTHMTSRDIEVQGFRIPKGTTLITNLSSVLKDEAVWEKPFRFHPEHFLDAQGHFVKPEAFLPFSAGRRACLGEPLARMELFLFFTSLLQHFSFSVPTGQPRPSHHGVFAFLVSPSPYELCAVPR
smiles,measurement,setting,value
CCc1ccc(NC(=O)c2[nH]c(C)c(C(C)=O)c2C)cc1,EC50,[1],1.62 µM (active)
same,EC50,[2],2.6 µM (active)
CN(C)S(=O)(=O)c1ccc(Cl)c(NC(=O)CN2CCCCCC2)c1,EC50,[3],> 120 µM (not active)
same,EC50,[4],> 120 µM (not active)
same,EC50,[5],> 120 µM (not active)
COC(=O)c1ccc(NS(=O)(=O)NC(=O)c2cn(C)c3ccccc23)cc1,EC50,[1],> 120 µM (not active)
same,EC50,[2],> 120 µM (not active)
same,EC50,H4,> 120 µM (not active)
C=CC[C@@H](CC(=O)N[C@H](CO)Cc1ccccc1)C(=O)N[C@H](COC(=O)[C@@H](CC=C)Cc1ccc(F)cc1)Cc1c[nH]c2ccccc12,AC50,Paired box protein Pax-8,8.96 µM (active)
FC(F)(F)c1c[nH]c2c(-c3ccccc3)nnc-2c1,EC50,[1],1.29 µM (active)
same,EC50,[2],19.3 µM (active)
same,EC50,H4,13.9 µM (active)
COc1nccc(-c2c(-c3ccc(F)cc3)ncn2C2CCC(O)CC2)n1 (centres undefined),AC50,Cytochrome P450 2C19; read-out: AC50,7.94 µM (inconclusive)
same,AC50,Cytochrome P450 2D6,12.6 µM (inconclusive)
same,AC50,Cytochrome P450 1A2,31.6 µM (inconclusive)
same,AC50,Cytochrome P450 2C9,7.94 µM (inconclusive)
Cc1nc2cncnc2n(Cc2ccc(F)cc2)c1=O,AC50,Cytochrome P450 2C19; read-out: AC50,39.8 µM (inconclusive)
same,AC50,Cytochrome P450 3A4,15.8 µM (inconclusive)
same,AC50,Cytochrome P450 2C9,25.1 µM (inconclusive)
COc1ccc(Br)cc1C(=O)Nc1cccc(NC(=O)c2ccco2)c1,CC50,[6],29.1 µM (active)
same,IC50,H9c2,> 79 µM (inactive)
CC1=Nc2ccccc2/C1=C/c1nc(-c2ccc(C)s2)oc1O,EC50,[7],21.4 µM (active)
C[C@@H]1OC=C2[C@@H](O)[C@H]3O[C@H]3C(=O)[C@]23[C@@H]2O[C@H](C)C(C4=C2[C@@H](O)[C@H]2O[C@@H]2C4=O)[C@@H]13,AC50,Cytochrome P450 2C19,inconclusive
Cc1ccc(C)c(Nc2c([N+](=O)[O-])ccc3nonc23)c1,EC50,[3],19.9 µM (active)
same,EC50,[4],> 120 µM (not active)
same,EC50,[5],53.7 µM (active)
COc1cc(NC(=O)c2cc3c(Cl)nc4ccccc4c3s2)cc(OC)c1OC,AC50,[8],24.4 µM (active)
COc1ccc(C(=O)C[n+]2ccccc2C=NO)cc1,EC50,[1],12.5 µM (active)
same,EC50,[2],12.1 µM (active)
same,EC50,H4,32 µM (active)
CC(C)NCC(O)COc1cccc2ccccc12 (centres undefined) [PROPRANOLOL HYDROCHLORIDE],AC50,[8],23.6 µM (active)
Cc1ccc(S(=O)(=O)N/N=C/c2cccn2-c2ccc(Cl)cc2)cc1,AC50,Cytochrome P450 2C19; read-out: AC50,0.0501 µM (inconclusive)
same,AC50,Cytochrome P450 1A2,12.6 µM (inconclusive)
same,AC50,Cytochrome P450 2C9,12.6 µM (inconclusive)
O=C(CC(c1ccco1)S(=O)(=O)c1ccccc1)c1ccc(F)cc1 (centres undefined),EC50,[7],> 260 µM (inactive)
COc1cc(C(=O)Nc2ccc(S(=O)(=O)N3CCc4ccccc43)cc2)cc(OC)c1OC,EC50,[7],> 260 µM (inactive)
Cc1ccc(NC(=NOCc2ccc(Cl)cc2Cl)c2nonc2N)c(C)c1,EC50,[7],> 260 µM (inactive)
OCCN1CCN(c2nc(N3CCCCC3)nc(N3CCCCC3)n2)CC1,AC50,Cytochrome P450 2C19; read-out: AC50,39.8 µM (inconclusive)
same,AC50,Cytochrome P450 3A4,14.1 µM (inconclusive)
same,AC50,Cytochrome P450 2C9,15.8 µM (inconclusive)
CCSc1nnc(-c2c[nH]c3ccccc23)o1,EC50,[1],63.9 µM (active)
same,EC50,[2],21.1 µM (active)
same,EC50,H4,24.7 µM (inconclusive)
COc1ccc(/C=N/NC(=O)c2ccco2)cc1Cn1nc(C)c([N+](=O)[O-])c1C,EC50,[3],> 120 µM (not active)
same,EC50,[4],> 120 µM (not active)
same,EC50,[5],> 120 µM (not active)
C[C@H](NC(=O)[C@@H]1CSC2c3ccccc3C(=O)N21)C(=O)NCCc1ccccc1 (some centres undefined),EC50,[7],248 µM (active)
CC(=O)Nc1cccc(-c2cc(NC=O)c3ncc(-c4ccc(C(C)=O)cc4)n3c2)c1,IC50,H9c2,11.2 µM (active)
O=c1c2ccccc2nnn1CSc1ncnc2ccccc12,EC50,[7],10.7 µM (active)
CC(=O)OC(C)(C)/C=C/C(=O)[C@](C)(O)C1[C@H](O)C[C@@]2(C)C3CC=C4C(C=C(O[C@@H]5O[C@H](CO)[C@@H](O)[C@H](O)[C@H]5O)C(=O)C4(C)C)[C@]3(C)C(=O)C[C@]12C (some centres undefined),AC50,Paired box protein Pax-8,7.14 µM (active)
Brc1ccc2c(c1)C(c1cccnc1)=NNC(c1cccs1)=N2,EC50,[7],93.6 µM (active)
N[C@H](C(=O)O)c1cc(O)cc(O)c1,AC50,Cytochrome P450 2C19; read-out: AC50,15.8 µM (inconclusive) and 10 µM (inconclusive)
same,AC50,Cytochrome P450 1A2,31.6 µM (inconclusive)
C=CCNC(=S)N/N=C/c1ccc(-c2ccc(Br)cc2)o1,EC50,[7],134 µM (active)
CCOC(=O)COc1ccc(/C=C2/S/C(=N/c3ccccc3)N(Cc3cccnc3)C2=O)cc1OC,EC50,[7],31.7 µM (active)
O=C(NCC1CCCO1)C1CCC(=O)N1CCc1ccccc1 (centres undefined),AC50,Cytochrome P450 2C19; read-out: AC50,7.08 µM (inconclusive)
CCn1cnc2c1c(=O)n(Cc1nnc3n1-c1ccccc1SC3)c(=O)n2Cc1ccccc1,EC50,[7],> 260 µM (inactive)
Nc1ccc(Sc2cc(Cl)nc(N)n2)cc1,EC50,[3],> 120 µM (not active)
same,EC50,[4],> 120 µM (not active)
same,EC50,[5],99.5 µM (active)
Nc1c(Cl)cc(C2=NCCn3c2c2ccc([N+](=O)[O-])cc2[n+]3[O-])cc1Cl,EC50,[3],14.7 µM (active)
same,EC50,[9],2 µM (active)
same,EC50,[4],> 120 µM (not active)
same,EC50,[5],8.15 µM (active)
same,EC50,Streptokinase A,> 150 µM (not active)
same,EC50,Streptococcus,5.67 µM (active)
COC(=O)C1=C(C)n2nnnc2NC1c1ccc(Cl)cc1 (centres undefined),EC50,[3],20.6 µM (active)
same,EC50,[4],> 120 µM (not active)
same,EC50,[5],> 120 µM (not active)
Cn1c2ccc(F)cc2c2ncn(CCN3CCOCC3)c(=O)c21,EC50,[7],> 260 µM (inactive)
COC(=O)Sc1nc(N2CCOCC2)c2c(c1C#N)CC(C)(C)OC2,IC50,H9c2,38.6 µM (inactive)
COc1ccc(NC(=O)N(C)[C@H]2C[C@H]3c4[nH]c5ccc(-c6ccc7c(c6)OCO7)cc5c4CCN3C[C@H]2[C@H](C)O)cc1,IC50,H9c2,> 79 µM (inactive)
COC(=O)c1ccccc1NC(=O)CSc1nc(Nc2ccccc2)nc(N2CCOCC2)n1,EC50,[7],> 260 µM (inactive)
CCOC(=O)c1cnc(Nc2nc3ccccc3o2)nc1CSc1nnc(C)s1,IC50,H9c2,13.4 µM (active)
